Measured values as given in PubChem BioAssay AID2305 (GlaxoSmithKline (GSK), 2010).

System: P. falciparum 3D7 growth, pLDH absorbance
Assay: P. falciparum 3D7 growth inhibition, dose response, strain 3D7 (AID 2305)

In order of rising IC50:
1. CCc1cc2c3c(N)nc(N)nc3ccc2n1C(C)(C)C  10 nM
2. CN(CCON1C(N)=NC(N)=NC1(C)C)c1ccccc1  20 nM
3. FC(F)(F)c1ccc2nc(-c3ccc(-c4cccc(CN5CCN(c6ccncc6)CC5)c4)cc3)[nH]c2c1  120 nM
4. CCC(C)NC(=O)CN1CN(c2ccccc2)C2(CCN(C(=O)c3ccc(C(C)(C)C)cc3)CC2)C1=O (configuration not stated)  130 nM
5. Cc1ccc(-c2nc3cc(NC(=O)c4ccc([N+](=O)[O-])o4)ccc3o2)cc1Cl  160 nM
6. CS(=O)(=O)c1ccc(CNCc2ccc(-c3ccc(-c4nc5ccc(C(F)(F)F)cc5[nH]4)s3)cc2)cc1  160 nM
7. Cc1cc(N2CCCC2)nc(Nc2ccc(NC(=O)c3cccc(F)c3)cc2)n1  180 nM
8. O=C(Nc1ccccc1)N(Cc1ccccc1-c1cccc(CNCCc2ccccc2)c1)C1CCN(Cc2ccccc2)CC1  180 nM
9. COc1ccc2nc3cc(Cl)ccc3c(NCCN(C)C)c2c1  190 nM
10. Cc1cccc2[nH]c(-c3ccc(-c4ccc(CNCc5ccccc5)cc4)s3)nc12  210 nM
11. CCN(CC)C(=NCCCCCCN=C(NC(N)=NCc1cccc(Cl)c1)N(CC)CC)NC(N)=NCc1cccc(Cl)c1  210 nM
12. NC(N)=NN=Cc1c2ccccc2c(Cl)c2ccc(Cl)cc12  230 nM
13. C=CCOC(=O)N1CCC(CNCc2cccc(-c3ccc(-c4nc5c(C)cccc5[nH]4)cc3)c2)C1 (configuration not stated)  250 nM
14. Cc1cc2c(cc1C(F)(F)F)N(C(=O)Nc1cc(OCCN(C(C)C)C(C)C)cc(C(F)(F)F)c1)CC2  260 nM
15. NC(=O)c1ccc(NCC(=O)Nc2cccc(-c3cccc(-c4nc5ccc(C(F)(F)F)cc5[nH]4)c3)c2)cc1  270 nM
16. CCc1ccccc1N1CCN(CCCC(=O)c2ccc(NC(=O)c3cc(Cl)cc(Cl)c3)cc2)CC1  290 nM
17. CCNc1cc(C(=O)N[C@@H](Cc2cccc(Cl)c2)[C@H](O)CNC(C)CCCC(C)C)cc(N2CCCCS2(=O)=O)c1 (some centres not stated)  290 nM
18. CCCc1cc(OC)c(CC2c3cccc(O)c3CCN2C)cc1OC (configuration not stated)  300 nM
19. c1ccc(Oc2ccc(Nc3ccnc4cc(-c5cccc(CNCCN6CCOCC6)c5)ccc34)cc2)cc1  390 nM
20. O=C(Nc1cc(=O)[nH]c2nc(-c3ccccc3)nn12)C1CCCCC1  420 nM
21. CN(C)c1ccc2nc(N)nc(N)c2c1Cl  470 nM
22. Cc1cc(=O)c2cc(-c3ccc(OC(F)(F)F)cc3)ccc2[nH]1  480 nM
23. CN1CCCc2ccc(NC(=O)C=Cc3ccc(-c4ccc(F)cc4F)o3)cc2C1  520 nM
24. CN(C)CCCn1c(N)c(-c2nc3ccccc3[nH]2)c2nc(C#N)c(C#N)nc21  590 nM
25. O=C(Nc1ccc(Cn2ncc(N3CCNCC3)c(Cl)c2=O)cc1)Nc1ccc(-c2ccccc2)cc1  590 nM
26. Cc1c(Cn2ncc(N3C[C@@H](C)N[C@@H](C)C3)c(Cl)c2=O)cccc1NC(=O)Nc1ccc(-c2ccccc2)cc1  600 nM
27. O=C(Cc1cccc(O)c1)NCC(Cc1ccc(O)cc1)c1ccccc1 (configuration not stated)  640 nM
28. Cc1cc(NC(=O)Nc2ccc(C(C)C)cc2)c2ccccc2n1  660 nM
29. C=CCC(CC=C)N1C(=O)C(c2ccccc2)(c2ccccc2)N=C1N  660 nM
30. O=C(Nc1cccc(-c2ccc(-c3nc4ccc(F)cc4[nH]3)s2)c1)c1ccncc1  700 nM
31. Cc1ccccc1C1CCN(c2ncc(C(=O)NC3CC3)cc2Cl)CC1  700 nM
32. N#Cc1ccc(N2CCN(Cc3cccc(-c4ccc(-c5nc6ccc(C(F)(F)F)cc6[nH]5)cc4)c3)CC2)nc1  700 nM
33. O=C(NCCCCCN1CCC(c2c[nH]c3ccccc23)CC1)Nc1ccc(Cl)cc1Cl  720 nM
34. CCC(=O)c1ccc(-c2ccc(=O)n(CC(=O)N(CCN(CC)CC)Cc3ccc(-c4ccc(C(F)(F)F)cc4)cc3)n2)cc1  720 nM
35. CCNc1cc(C(=O)N[C@@H](Cc2ccccc2)[C@H](O)CNCc2cc(OC)cc(OC)c2)cc(N2CCCC2=O)c1  740 nM
36. CCCCc1cc(NCc2ccncc2)nc(Nc2cccc(OC)c2)n1  740 nM
37. O=C(/C=C/c1ccc(Cl)c(Cl)c1)N1CCC(CN2[C@@H]3CC[C@H]2CC(c2c[nH]c4ccccc24)C3)CC1 (some centres not stated)  740 nM
38. Cc1cccc2[nH]c(-c3ccc(-c4cccc(CN5CC(C)OC(C)C5)c4)s3)nc12 (configuration not stated)  760 nM
39. CC(C)CNCc1cccc(-c2ccc(CN(C(=O)NC3CCCCC3)C3CCN(Cc4ccccc4)CC3)cc2)c1  760 nM
40. CCc1cccc2sc(N3CCN(C(=O)c4ccc([N+](=O)[O-])o4)CC3)nc12  770 nM
41. CN1CCC(C(=O)Nc2ccc(-c3cccc(-c4nc5ccc(F)cc5[nH]4)c3)cc2)CC1  790 nM
42. Clc1ccccc1CN1CCC(NCc2cccc(-n3ccnc3)c2)CC1  790 nM
43. CC(C)CNc1c2c(nc3cnn(-c4c5c(nc6cn[nH]c46)CCCC5)c13)CCCC2  790 nM
44. CCCCC1(NC(=O)[C@H](CC(C)C)Nc2ccc(C#N)c3ccccc23)CCCCC1  800 nM
45. Cc1cc(-c2ncc[nH]2)ccc1-c1ccc(C(=O)N2CCc3cc4c(cc32)C2(CCN(C)CC2)CO4)cc1  800 nM
46. c1cc(CN2CCc3ccccc3CC2)cc(-c2c[nH]c3nc(NC4CCCC4)ncc23)c1  800 nM
47. CN(C)CCn1c(=N)n(CC(O)c2ccc(Cl)c(Cl)c2)c2ccccc21 (configuration not stated)  800 nM
48. CCc1c(CCNCCCCCCNCCc2ccccc2)ccc(OC)c1OC  800 nM
49. CC1CCCN1Cc1ccc(-c2ccc3c(=O)cc(CCc4cccc(F)c4F)n(CC(=O)N(C)Cc4ccc(-c5ccc(C(F)(F)F)cc5)cc4)c3n2)cc1 (configuration not stated)  820 nM
50. CC(Cc1ccc(COc2ccc(CC(CO)NCCc3cccc(Cl)c3)cc2)cc1)NCCc1cccc(Cl)c1 (configuration not stated)  820 nM
51. COc1cc(Cc2cnc(N)nc2N)cc(CC(C)O)c1O (configuration not stated)  840 nM
52. COc1ccc2nccc(N3CCN(CCNCc4ccc5c(n4)NC(=O)CS5)CC3)c2n1  840 nM
53. COc1cccc(CN(C(=O)Nc2ccccc2F)[C@H]2C[C@H]3C(=O)Nc4cc(F)ccc4C(=O)N3C2)c1  840 nM
54. c1cc(CNCC2CCCO2)cc(-c2cccc(-c3nc4ccccc4[nH]3)c2)c1 (configuration not stated)  860 nM
55. CC(C)C(=O)NC(c1ccc(N(C)C)cc1)c1cc(Cl)c2cccnc2c1O (configuration not stated)  860 nM
56. COc1ccc(Nc2nc(C)cc(NC3CCCC3)n2)cc1  870 nM
57. COc1ccc(C[C@@H](C)NC[C@H](O)c2cccc(Cl)c2)cc1F  870 nM
58. CN1CCN(c2cc(NC(=O)Nc3ccc(-c4ccncc4)c(Cl)c3)ccc2Br)CC1  900 nM
59. Fc1ccc(OC2CN(c3nccc(NCc4ccccc4Cl)n3)C2)cc1  900 nM
60. N#Cc1ccc(CN2CCCN(Cc3cccc(NC(=O)c4cc5ccccc5s4)c3)CC2)cc1  910 nM
61. O=C(CCc1ccccc1)N[C@H](Cc1c[nH]c2ccccc12)C(=O)N1CCC(NCc2ccc3c(c2)Cc2ccccc2-3)CC1  910 nM
62. CCn1cc(CN2CCCC(C(=O)Nc3ccc(-c4nc5ccccc5[nH]4)cc3)C2)cn1 (configuration not stated)  930 nM
63. CC(C)(C)c1ccc(CNC(=O)COc2ccc(-c3nnc(-c4cccc([N+](=O)[O-])c4)o3)cc2[N+](=O)[O-])cc1  930 nM
64. COc1ccc(-n2ccnc2)cc1CNC1CCN(CC2Cn3c(=O)ccc4ccc(F)c2c43)CC1 (configuration not stated)  930 nM
65. CCCCN(C(=O)c1ccccc1C)c1nnc(-c2ccccc2C)s1  930 nM
66. Nc1ccc2nc(C=Cc3ccc(Cl)cc3)[nH]c2c1  940 nM
67. O=C(c1ccc(Cl)cc1Cl)N1CCCC(C(F)(F)F)C1 (configuration not stated)  950 nM
68. COc1ccc(C2CC(c3ccccc3O)=NN2C(=O)c2ccco2)cc1OC (configuration not stated)  950 nM
69. COc1ccccc1CCNc1nc(C)cc(N[C@@H](CC(C)C)C(=O)NCc2cccc(F)c2)n1  970 nM
70. CC(=O)Nc1ccc(OCCCCN(Cc2ccccc2C(F)(F)F)c2ccc(C#N)c(C(F)(F)F)c2)c(Cl)c1  980 nM
71. CC(C)(C)c1ccc2nc(-c3ccc(/C=C/C(=O)NCc4cccc(C(F)(F)F)c4)cc3)[nH]c2c1  990 nM
72. N[C@@H](Cc1cc(I)c(Oc2ccc(O)c(C(=O)O)c2)c(I)c1)C(=O)O  990 nM
73. O=C(c1ccc(F)c2ccccc12)N1CCc2cc3nccc(N4CCN5CCC[C@H]5C4)c3cc21  1000 nM
74. Cc1cc(C)nc(-n2[nH]c(C)c(Cc3ccc(C(C)(C)C)cc3)c2=O)n1  1010 nM
75. COc1ccc(CNCc2ccc(-c3ccc(CNCCc4ccccc4)cn3)cc2)cn1  1010 nM
76. CCN1CCC(N2CCC(n3c(C)nc4cc(C(F)(F)F)ccc43)CC2)CC1  1020 nM
77. Cc1cc(OCCCN2CCCCC2)ccc1NC(=O)COc1ccc(Cl)cc1C(=O)c1cc(C#N)cc(C(F)(F)F)c1  1030 nM
78. O=C(NCCCCCN1CCCN(C(=O)Nc2ccc(F)c(C(F)(F)F)c2)CC1)[C@@H]1C[C@H]1c1ccc(Cl)c(Cl)c1  1030 nM
79. N=C(N)c1ccc(C(=O)Nc2cccc(C(=N)N)c2)cc1  1040 nM
80. COc1cc(Cl)c(C)cc1N(Cc1ccccc1-c1ccccc1)S(=O)(=O)c1ccc(C(F)(F)F)cc1  1050 nM
81. CC1CCCN(C(=O)c2cc(-c3ccccn3)nc3c(Cl)cccc23)C1 (configuration not stated)  1080 nM
82. COCCNCc1nc(-c2ccc3c(Nc4ccc(Cl)cc4F)ccnc3c2)cs1  1080 nM
83. COc1cc(C=Cc2ccc3ccccc3n2)cc(Br)c1OCC(=O)N(C)C  1100 nM
84. COc1ccc(C=NNc2c3ccccc3nc3ccccc23)c2ccccc12  1130 nM
85. CCCOc1cc(Cc2cnc(N)nc2N)cc(OC)c1OC  1170 nM
86. CN(C)CCN(C)Cc1ccc(-c2cccc(NC(=O)c3cccc(C#N)c3)c2)cc1  1180 nM
87. CCOP(=O)(OCC)c1ccc(OC)c(-c2ccc[nH]2)c1  1190 nM
88. O=C(/C=C/c1ccc(Cl)c(Cl)c1)NCCCCCN1CCC(NS(=O)(=O)c2cc(Cl)cc(Cl)c2)CC1  1240 nM
89. N#Cc1ccc(C2CCN(CC[C@H](N)Cc3ccc(Cl)s3)CC2)cc1  1260 nM
90. CCCCCCNC(=O)C1Cc2c([nH]c3ccc(C)cc23)C2(CCN(CCc3ccccc3)CC2)N1 (configuration not stated)  1270 nM
91. Cc1cc(N[C@@H](Cc2ccccc2)C(=O)NCc2cccs2)nc(NCCc2ccccn2)n1  1280 nM
92. CCCS(=O)(=O)c1nc(S(=O)(=O)c2ccc(Cl)cc2)c(N2CCCCC2)s1  1290 nM
93. CCC(C)(C)c1ccc(OCC(O)CN2CCCCC2)c(C(C)(C)CC)c1 (configuration not stated)  1300 nM
94. CC(C)COc1ccc(Cl)cc1Cc1nc(-c2nc3c(CN4CCN(C)CC4)cccc3[nH]2)cs1  1330 nM
95. CN(C)CCCN(C)c1cccc2c1nc(-c1cccnc1)n2CCNCc1ccccc1  1390 nM
96. CCCNC(=O)c1ccc(N2CCC(c3ccccc3C)CC2)nc1  1520 nM
97. COc1ccc2nccc([C@@H](O)CN3CCC(NCc4cc5ccccn5n4)CC3)c2c1  1570 nM
